Test system: 636577-100-R-J1-PDC complex spheroid viability
Assay: Anticancer human tumor 636577-100-R-J1-PDC patient-derived endometrial adenocarcinoma cell line growth inhibition [GQUAD]
Conditions: for IC50: curve of first compound; for viability, T/C: stronger effect = lower value
Description: DNA G-quadruplex Stabilizer Agents in Combinations in Complex Spheroids
A high-throughput screen of multi-cell type tumor spheroids was designed to identify active combinations of DNA G-quadruplex stabilizer agents and targeted small molecules. Complex spheroids include a stromal component modeled by human endothelial cells (HUVEC) and fibroblasts modeled by human mesenchymal stem cells (MSCs). The concentration ranges selected for each drug and investigational agent were based upon clinically achievable concentrations if the clinical Cmax of the agent was known.
Compounds. The drugs and investigational agents: pidnarulex (CX-5461; NSC782164), APTO-253 (NSC789042), BRACO-19 (NSC847499), peposertib (NSC802822), ceralasertib (NSC780249), elimusertib (NSC800525), camonsertib (NSC841442), AZD-1390 (NSC803789), olaparib (NSC753686), talazoparib (NSC767125), ART-558 (NSC835418), sotorasib (NSC818433), MRTX-1133 (NSC836407), SN-38 (NSC673596), topotecan (NSC609699), etoposide (NSC141540), doxorubicin (NSC123127), gemcitabine (NSC613327), 5-fluorouracil (NSC19893), paclitaxel (NSC125973), vemurafenib (NSC761431), panobinostat (NSC761190), R-306465 (JNJ-16241199; NSC773264), adavosertib (NSC754352), TP-3654 (NSC805149), carboplatin (NSC241240), KSQ-4279 (NSC840948), and staurosporine (NSC755774) were obtained from the National Cancer Institute (NCI) Developmental Therapeutics Program Chemical Repository (34). The FDA-approved anticancer drug set is available from the NCI Developmental Therapeutics Program. […] The stock solutions were prepared in dimethyl sulfoxide (DMSO, Sigma-Aldrich, St. Louis, MO, cat. D2650) at 800-fold the tested concentration and stored at -70 degrees C prior to their use. All drugs and investigational agents were tested over a range starting from a high concentration at or near the clinical Cmax and decreasing in half-log increments. If the clinical Cmax for an agent had not been determined, the highest concentration tested was 10 microM.
2.3 Cell Culture. All cells were maintained in an incubator at 37 degrees C and 5% CO2 with 95% humidity. The PDC lines were cultured according to standard operating procedures established by the NCI PDMR. All PDCs were thawed and cultured in Matrigel-coated flasks prepared with a working solution of 1X Ham's F-12 nutrient mix, without supplementation (Invitrogen, cat. 11765054), 100 U/mL penicillin-streptomycin (Invitrogen, cat. 15140122), and 2.5% Matrigel (Corning Inc., cat. 354248) for the first three passages. The 857933-349-R-J2-PDC line was cultured in 6C/Colon 1B media, which includes advanced DMEM/F-12 (Thermo Fisher Scientific, cat. 12634028), 10 mM HEPES (Thermo Fisher Scientific, cat. 15630080), 1X GlutaMAX supplement (Thermo Fisher Scientific, cat. 35050061), 0.1 mg/mL primocin (InvivoGen, cat. ant-pm-2), 10% defined fetal bovine serum, heat inactivated (HyClone Laboratories Inc., cat. SH30070.03HI), 50% L-WRN conditioned media (ATCC, cat. CRL-3276), 1.25 mM N-Acetyl-L-cysteine (Sigma-Aldrich, cat. A9165), 10 mM nicotinamide (Sigma-Aldrich, cat. N0636), 1X B-27 supplement (Thermo Fisher Scientific, cat. 17504044), 1X N-2 supplement (Thermo Fisher Scientific, cat. 17502048), 10 microM Y-27632 dihydrochloride (Tocris Bioscience, cat. 1254), and 50 ng/mL human EGF recombinant protein (Thermo Fisher Scientific, cat. PHG0311). The 485176-168-R4-J1-PDC line was cultured in Panc media, which includes all 6C/Colon 1B media components plus 100 ng/mL human FGF-10 (Thermo Fisher Scientific, cat. 100-26), 500 nM SB-431542 (Selleckchem, cat. S1067), and gastrin (Tocris, cat. 3006).
[…]

[1] = second compound 0.0316 µM, first compound 0.0316 µM
[2] = second compound 0.0316 µM, first compound 0.1 µM
[3] = second compound 0.0316 µM, first compound 0.316 µM
[4] = second compound 0.0316 µM, first compound 1 µM
[5] = second compound 0.0316 µM, first compound 3.16 µM
[6] = second compound 0.0316 µM, first compound 10 µM
[7] = second compound 0.1 µM, first compound 0.0316 µM
[8] = second compound 0.1 µM, first compound 0.1 µM
[9] = second compound 0.1 µM, first compound 0.316 µM
[10] = second compound 0.1 µM, first compound 1 µM
[11] = second compound 0.1 µM, first compound 3.16 µM
[12] = second compound 0.1 µM, first compound 10 µM
[13] = second compound 0.316 µM, first compound 0.0316 µM
[14] = second compound 0.316 µM, first compound 0.1 µM
[15] = second compound 0.316 µM, first compound 0.316 µM
[16] = second compound 0.316 µM, first compound 1 µM
[17] = second compound 0.316 µM, first compound 3.16 µM
[18] = second compound 0.316 µM, first compound 10 µM
[19] = second compound 1 µM, first compound 0.0316 µM
[20] = second compound 1 µM, first compound 0.1 µM
[21] = second compound 1 µM, first compound 0.316 µM
[22] = second compound 1 µM, first compound 1 µM
[23] = second compound 1 µM, first compound 3.16 µM
[24] = second compound 1 µM, first compound 10 µM
[25] = second compound 3.16 µM, first compound 0.0316 µM
[26] = second compound 3.16 µM, first compound 0.1 µM
[27] = second compound 3.16 µM, first compound 0.316 µM
[28] = second compound 3.16 µM, first compound 1 µM
[29] = second compound 3.16 µM, first compound 3.16 µM
[30] = second compound 3.16 µM, first compound 10 µM
[31] = second compound 10 µM, first compound 0.0316 µM
[32] = second compound 10 µM, first compound 0.1 µM
[33] = second compound 10 µM, first compound 0.316 µM
[34] = second compound 10 µM, first compound 1 µM
[35] = second compound 10 µM, first compound 3.16 µM
[36] = second compound 10 µM, first compound 10 µM
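Further: viability read after seven days of drug exposure.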
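Wherever viability, T/C is given: luminescence signal used as a proxy for viable cells; 100% = DMSO vehicle control wells.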

CC1COCCN1c1cc(C2(O)CC3CCC(C2)O3)c2cnn(-c3ccn[nH]3)c2n1 (centres undefined) + CN(C)c1ccc(Nc2c3ccc(NC(=O)CCN4CCCC4)cc3nc3cc(NC(=O)CCN4CCCC4)ccc23)cc1
IC50 (second compound 0.0316 µM): 46.2 nM
IC50 (second compound 0.1 µM): 33.6 nM
IC50 (second compound 0.316 µM): < 31.6 nM
IC50 (second compound 1 µM): < 31.6 nM
IC50 (second compound 3.16 µM): < 31.6 nM
IC50 (second compound 10 µM): < 31.6 nM
viability, T/C [1]: 59.8%
viability, T/C [2]: 30.1%
viability, T/C [3]: 14.8%
viability, T/C [4]: 7.23%
viability, T/C [5]: 3%
viability, T/C [6]: 0.68%
viability, T/C [7]: 51.9%
viability, T/C [8]: 25.7%
viability, T/C [9]: 15.9%
viability, T/C [10]: 6.63%
viability, T/C [11]: 2.93%
viability, T/C [12]: 0.63%
viability, T/C [13]: 49.4%
viability, T/C [14]: 27.2%
viability, T/C [15]: 14.4%
viability, T/C [16]: 7.39%
viability, T/C [17]: 2.94%
viability, T/C [18]: 0.62%
viability, T/C [19]: 44.5%
viability, T/C [20]: 24.9%
viability, T/C [21]: 13.1%
viability, T/C [22]: 7.03%
viability, T/C [23]: 2.84%
viability, T/C [24]: 0.8%
viability, T/C [25]: 23.6%
viability, T/C [26]: 18.4%
viability, T/C [27]: 12.6%
viability, T/C [28]: 6.87%
viability, T/C [29]: 2.75%
viability, T/C [30]: 0.79%
viability, T/C [31]: 5.13%
viability, T/C [32]: 4.81%
viability, T/C [33]: 2.43%
viability, T/C [34]: 2.03%
viability, T/C [35]: 1.14%
viability, T/C [36]: 0.3%

CC1COCCN1c1cc(C2(S(C)(=N)=O)CC2)nc(-c2ccnc3[nH]ccc23)n1 (centres undefined) + CN(C)c1ccc(Nc2c3ccc(NC(=O)CCN4CCCC4)cc3nc3cc(NC(=O)CCN4CCCC4)ccc23)cc1
IC50 (second compound 0.0316 µM): 1040 nM
IC50 (second compound 0.1 µM): 934 nM
IC50 (second compound 0.316 µM): 463 nM
IC50 (second compound 1 µM): 626 nM
IC50 (second compound 3.16 µM): < 31.6 nM
IC50 (second compound 10 µM): < 31.6 nM
viability, T/C [1]: 91.4%
viability, T/C [2]: 74.6%
viability, T/C [3]: 89.4%
viability, T/C [4]: 51.2%
viability, T/C [5]: 21.4%
viability, T/C [6]: 14%
viability, T/C [7]: 78.4%
viability, T/C [8]: 71.3%
viability, T/C [9]: 89.4%
viability, T/C [10]: 48.1%
viability, T/C [11]: 22.4%
viability, T/C [12]: 14.6%
viability, T/C [13]: 75.7%
viability, T/C [14]: 67.3%
viability, T/C [15]: 54.2%
viability, T/C [16]: 41.2%
viability, T/C [17]: 24.4%
viability, T/C [18]: 14.1%
viability, T/C [19]: 42.9%
viability, T/C [20]: 80.2%
viability, T/C [21]: 65%
viability, T/C [22]: 41.2%
viability, T/C [23]: 23.6%
viability, T/C [24]: 16%
viability, T/C [25]: 34.6%
viability, T/C [26]: 45.8%
viability, T/C [27]: 34%
viability, T/C [28]: 29.5%
viability, T/C [29]: 18.3%
viability, T/C [30]: 13.2%
viability, T/C [31]: 6.13%
viability, T/C [32]: 5.83%
viability, T/C [33]: 5.26%
viability, T/C [34]: 5.47%
viability, T/C [35]: 3.58%
viability, T/C [36]: 1.72%
